We go through one molecule from patent US20180193327A1, “PROPHYLACTIC LEUKOTRIENE INHIBITOR AND IMPLANT DISPLACEMENT THERAPY FOR PREVENTION AND TREATMENT OF CAPSULAR CONTRACTURE IN SILICONE BREAST AUGMENTATION” (priority 2017, published 2018).

The structures appear in SMILES notation.

The subject of data set [1] is capsular contracture in patients undergoing primary silicone gel breast augmentation. The experiment in a line: Capsular contracture (Baker scale) at one year after primary silicone gel breast augmentation, retrospective review. The data set is classed as in vivo, patients (women). The method, then: The study was performed with a retrospective review of 1122 consecutive women undergoing primary, silicone gel breast augmentation. Over time, the author added leukotriene inhibitor therapy to the postoperative treatment of patients. The first group of patients were treated without leukotriene therapy. Consecutive patients agreeing to the off-label use of leukotriene inhibitors were then studied. The second group of consecutive patients was offered Singulair therapy postoperatively while all other aspects of the surgical technique and care remained the same. Finally, the author offered Accolate therapy to the final group of patients undergoing breast augmentation.
Patients chose augmentation with either a periareolar or inframammary approach. Silicone breast augmentation procedures were performed using a standardized, dual plane technique. All patients were treated with preoperative intravenous antibiotics, either a one-gram dose of cephazolin or 600 mg of clindamycin, selected based on allergy profiles. Prior to insertion of implants, triple-antibioic irrigation (50,000 U bacitracin, 1 g Ancef, 80 mg gentamicin) with the addition of 50 ml of povidone-iodine in 500 ml of normal saline was utilized. All implants were placed with power-free glove changes, and inserted through a skin barrier/nipple shield using Tegaderm dressings. The implant displacement therapy protocol was initiated on post-operative day two.
(§1) Patients that were administered Singulair were treated according to the method described in FIGS. 1 and 2 of the present disclosure. First, patients were evaluated clinically to see if they were a candidate for breast augmentation with physical examination and medical history. The medical history review included discussion and review of liver health, current medications, and potential contraindications or drug interactions with leukotriene inhibitors. Patients were then provided an informed consent for the use of Singulair, 10 mg daily. The informed consent reviewed the potential benefits and risks of this medication which is taken as an off-label indication. Breast augmentation was performed with either smooth or textured silicone or saline implants. On the day following surgery, Singulair therapy is initiated, 10 mg QD. In the first week following surgery, the implant displacement therapy protocol was begun for patients with smooth surface silicone implants. The implant displacement therapy protocol may also be performed, if indicated, for patients with mildly textured breast implants, but not with moderately textured or highly textured devices. Monitoring for side effects from Singulair was conducted by educating patients as to the common side effects and discussing with patients noted side effects. Singulair can be discontinued if the side effects are significant. At thirty days postoperatively, the softness of the breast implants as well as the implant movement and position was evaluated to determine if capsular contracture was present. Two more months of Singulair was prescribed. Following three total months of therapy, the breasts were evaluated for the presence of capsular contracture. Patients without clinical capsular contracture, Baker I and II, were completed with therapy. Patients with clinical capsular contracture, either Baker III or IV, were treated with an additional three months of Singulair therapy as prescribed with the continuation of implant displacement therapy protocol. If patients declined to take Singulair or had side effects from the medication, implant displacement therapy protocol was continued and patients were offered 800 units-1000 units of Vitamin E daily in lieu of Singulair.
Patients that were administered Accolate were treated according to the method described in FIGS. 1 and 2 of the present disclosure. First, patients were evaluated clinically to see if they were a candidate for breast augmentation with physical examination and medical history. […]

The nature of data set [2]: Side effects and discontinuation reported by patients taking leukotriene inhibitors after primary augmentation. The data set is classed as in vivo, patients (women). The conditions noted are these: human, in vivo. On the procedure:
as §1
Patients that were administered Accolate were treated according to the method described in FIGS. 1 and 2 of the present disclosure. First, patients were evaluated clinically to see if they were a candidate for breast augmentation with physical examination and medical history. The medical history review included discussion and review of liver health, current medications, and potential contraindications or drug interactions with leukotriene inhibitors. Patients were then provided an informed consent for the use of Accolate (Zafirlukast), 20 mg twice daily. Patients were counseled to take the medication at least one hour before meals. The informed consent reviews the potential benefits and risks of this medication which is taken as an off-label indication. Breast augmentation was performed with either smooth or textured silicone or saline implants. On the day following surgery, Accolate therapy was initiated, 20 mg BID. In the first week following surgery, the implant displacement therapy protocol was begun for patients with smooth surface silicone implants. The implant displacement therapy protocol may also be performed, if indicated, for patients with mildly textured breast implants, but not with moderately textured or highly textured devices. […]

[3] abbreviates: one year following silicone gel breast augmentation.

Turning to `CC(C)(O)c1ccccc1CC[C@@H](SCC1(CC(=O)O)CC1)c1cccc(/C=C/c2ccc3ccc(Cl)cc3n2)c1` [Singulair, Montelukast], the “% of Patients with Capsular Contracture” value in data set [1] (one year following primary silicone gel breast augmentation, Baker grade III or IV, three months therapy plus implant displacement protocol) worked out at 3.27%. Further, in data set [1] (setting [3]), the “Percentage of patients demonstrating capsular contracture, inframammary incision” value stood at 2.08%; the “Percentage of patients demonstrating capsular contracture, periareolar incision” value is recorded as 3.81%; the “Percentage of patients demonstrating capsular contracture, total (both incisions)” value came out at 3.27%. Also, the “Percentage of patients discontinuing the medication because of (minor) side effects or cost” value in data set [2] (female, 3 months) is reported as 2.5%. For the same molecule, the “Common side effects reported by patients” value in data set [2] is reported as “headache, GI symptoms, fatigue, rash”.
